# Results: ChEMBL document CHEMBL6127052, “Discovery of membrane-targeting amphiphilic honokiol derivatives containing an oxazolethione moiety to combat methicillin-resistant Staphylococcus aureus (MRSA) infections” (Eur J Med Chem, 2024)
# Key:
# Staphylococcus aureus [1] = test: Antibacterial activity against methicillin-resistant Staphylococcus aureus clinical isolate M12 by CLSI based micro-broth dilution method; assay type: functional
# Staphylococcus aureus [2] = test: Antibacterial activity against methicillin-resistant Staphylococcus aureus clinical isolate M20 by CLSI based micro-broth dilution method; assay type: functional
# Staphylococcus aureus [3] = test: Antibacterial activity against methicillin-resistant Staphylococcus aureus clinical isolate M22 by CLSI based micro-broth dilution method; assay type: functional
# Staphylococcus aureus [4] = test: Antibacterial activity against methicillin-resistant Staphylococcus aureus clinical isolate M14 by CLSI based micro-broth dilution method; assay type: functional
# Staphylococcus aureus [5] = test: Antibacterial activity against methicillin-resistant Staphylococcus aureus clinical isolate M21 by CLSI based micro-broth dilution method; assay type: functional
# Staphylococcus aureus [6] = test: Antibacterial activity against methicillin-resistant Staphylococcus aureus clinical isolate M17 by CLSI based micro-broth dilution method; assay type: functional
# [7] = Hemolytic activity in sheep erythrocytes incubated for 1 hr by absorbance based assay; assay type: toxicity, cell-based, Ovis aries, Erythrocyte
# Staphylococcus aureus [8] = test: Antibacterial activity against methicillin-resistant Staphylococcus aureus clinical isolate M13 by CLSI based micro-broth dilution method; assay type: functional
# Staphylococcus aureus [9] = test: Antibacterial activity against methicillin-resistant Staphylococcus aureus clinical isolate M23 by CLSI based micro-broth dilution method; assay type: functional
# Escherichia coli = test: Antibacterial activity against Escherichia coli ATCC 25922 by CLSI based micro-broth dilution method; assay type: functional
# [10] = Selectivity index, ratio of HC50 for hemolytic activity in sheep erythrocytes to MIC for antibacterial activity against Staphylococcus aureus ATCC 29213; assay type: toxicity, cell-based, RBC
# Staphylococcus aureus [11] = test: Antibacterial activity against methicillin-resistant Staphylococcus aureus clinical isolate M11 by CLSI based micro-broth dilution method; assay type: functional
# Staphylococcus aureus [12] = test: Antibacterial activity against Staphylococcus aureus ATCC 29213 by CLSI based micro-broth dilution method; assay type: functional
# Staphylococcus aureus [13] = test: Antibacterial activity against methicillin-resistant Staphylococcus aureus clinical isolate M16 by CLSI based micro-broth dilution method; assay type: functional
# Staphylococcus aureus [14] = test: Antibacterial activity against methicillin-resistant Staphylococcus aureus N315 by CLSI based micro-broth dilution method; assay type: functional
Structure (SMILES),MIC (Staphylococcus aureus [1]),MIC (Staphylococcus aureus [2]),MIC (Staphylococcus aureus [3]),MIC (Staphylococcus aureus [4]),MIC (Staphylococcus aureus [5]),MIC (Staphylococcus aureus [6]),HC50 at 1 h [7],MIC (Staphylococcus aureus [8]),MIC (Staphylococcus aureus [9]),MIC (Escherichia coli),selectivity ratio [10],MIC (Staphylococcus aureus [11]),MIC (Staphylococcus aureus [12]),MIC (Staphylococcus aureus [13]),MIC (Staphylococcus aureus [14])
C=CCc1cc(-c2ccc(OCCC[N+](C)(C)CC(=O)NCCCC)c(CC=C)c2)c2oc(=S)n(Cc3ccc(F)c(Br)c3)c2c1.[Br-],4 µg/mL,4 µg/mL,32 µg/mL,8 µg/mL,4 µg/mL,16 µg/mL,42.1 µg/mL,8 µg/mL,8 µg/mL,> 128 µg/mL,2.6,8 µg/mL,16 µg/mL,8 µg/mL,16 µg/mL
C=CCc1cc(-c2ccc(OCCC[N+](C)(C)CC(=O)NCCCC)c(CC=C)c2)c2oc(=S)n(Cc3ccc(Br)cc3Br)c2c1.[Br-],> 128 µg/mL,> 128 µg/mL,> 128 µg/mL,> 128 µg/mL,> 128 µg/mL,> 128 µg/mL,65.4 µg/mL,> 128 µg/mL,> 128 µg/mL,> 128 µg/mL,0.5,> 128 µg/mL,> 128 µg/mL,> 128 µg/mL,128 µg/mL
C=CCc1cc(-c2ccc(OCCC[N+](C)(C)CC(=O)NCCCC)c(CC=C)c2)c2oc(=S)n(Cc3ccc(Cl)c(Br)c3)c2c1.[Br-],> 128 µg/mL,> 128 µg/mL,128 µg/mL,> 128 µg/mL,128 µg/mL,128 µg/mL,> 160 µg/mL,> 128 µg/mL,> 128 µg/mL,> 128 µg/mL,1.3,128 µg/mL,> 128 µg/mL,> 128 µg/mL,> 128 µg/mL
C=CCc1cc(-c2ccc(OCCC[N+](C)(C)CC(=O)NCCCC)c(CC=C)c2)c2oc(=S)n(Cc3ccc(C(F)(F)F)cc3)c2c1.[Br-],4 µg/mL,4 µg/mL,16 µg/mL,8 µg/mL,8 µg/mL,16 µg/mL,> 160 µg/mL,4 µg/mL,8 µg/mL,> 128 µg/mL,> 20,4 µg/mL,8 µg/mL,8 µg/mL,16 µg/mL
C=CCc1ccc(O)c(-c2ccc(O)c(CC=C)c2)c1 [HONOKIOL],8 µg/mL,8 µg/mL,16 µg/mL,16 µg/mL,16 µg/mL,16 µg/mL,> 80 µg/mL,16 µg/mL,16 µg/mL,> 128 µg/mL,> 2.5,16 µg/mL,32 µg/mL,16 µg/mL,8 µg/mL
C=CCc1cc(-c2ccc(OCCC[N+](C)(C)CC(=O)NCCCC)c(CC=C)c2)c2oc(=S)n(Cc3cccc(Cl)c3Cl)c2c1.[Br-],8 µg/mL,8 µg/mL,64 µg/mL,32 µg/mL,8 µg/mL,64 µg/mL,22 µg/mL,64 µg/mL,64 µg/mL,> 128 µg/mL,0.7,16 µg/mL,32 µg/mL,64 µg/mL,64 µg/mL
C=CCc1cc(-c2ccc(OCCC[N+](C)(C)CC(=O)NCCCC)c(CC=C)c2)c2oc(=S)n(Cc3ccc(Br)cc3)c2c1.[Br-],16 µg/mL,16 µg/mL,32 µg/mL,16 µg/mL,16 µg/mL,16 µg/mL,489 µg/mL,16 µg/mL,16 µg/mL,> 128 µg/mL,15.3,16 µg/mL,32 µg/mL,16 µg/mL,32 µg/mL
C=CCc1cc(-c2ccc(OCCC[N+](C)(C)CC(=O)NCCCC)c(CC=C)c2)c2oc(=S)n(Cc3ccccc3F)c2c1.[Br-],4 µg/mL,8 µg/mL,32 µg/mL,8 µg/mL,4 µg/mL,8 µg/mL,> 160 µg/mL,8 µg/mL,8 µg/mL,> 128 µg/mL,> 20,4 µg/mL,8 µg/mL,8 µg/mL,8 µg/mL
C=CCc1cc(-c2ccc(OCCC[N+](C)(C)CC(=O)NCCCC)c(CC=C)c2)c2oc(=S)n(Cc3ccccc3)c2c1.[Br-],4 µg/mL,8 µg/mL,4 µg/mL,4 µg/mL,4 µg/mL,8 µg/mL,> 160 µg/mL,4 µg/mL,4 µg/mL,> 128 µg/mL,> 20,4 µg/mL,8 µg/mL,4 µg/mL,8 µg/mL
C=CCc1cc(-c2ccc(OCCC[N+](C)(C)CC(=O)NCCCC)c(CC=C)c2)c2oc(=S)n(Cc3ccc(F)c(Cl)c3)c2c1.[Br-],8 µg/mL,16 µg/mL,32 µg/mL,32 µg/mL,8 µg/mL,16 µg/mL,> 160 µg/mL,16 µg/mL,32 µg/mL,> 128 µg/mL,> 1.25,16 µg/mL,128 µg/mL,16 µg/mL,64 µg/mL
C=CCc1cc(-c2ccc(OCCC[N+](C)(C)CC(=O)NCCCC)c(CC=C)c2)c2oc(=S)n(Cc3ccc(Cl)cc3Br)c2c1.[Br-],> 128 µg/mL,> 128 µg/mL,128 µg/mL,> 128 µg/mL,128 µg/mL,> 128 µg/mL,95.8 µg/mL,> 128 µg/mL,128 µg/mL,> 128 µg/mL,0.7,128 µg/mL,> 128 µg/mL,128 µg/mL,128 µg/mL
C=CCc1cc(-c2ccc(OCCC[N+](C)(C)CC(=O)NCCCC)c(CC=C)c2)c2oc(=S)n(Cc3ccc(F)cc3Cl)c2c1.[Br-],32 µg/mL,16 µg/mL,64 µg/mL,16 µg/mL,16 µg/mL,64 µg/mL,> 160 µg/mL,64 µg/mL,32 µg/mL,> 128 µg/mL,> 5,16 µg/mL,32 µg/mL,16 µg/mL,32 µg/mL
C=CCc1cc(-c2ccc(OCCC[N+](C)(C)CC(=O)NCCCC)c(CC=C)c2)c2oc(=S)n(Cc3cc(Cl)cc(Cl)c3)c2c1.[Br-],8 µg/mL,16 µg/mL,32 µg/mL,32 µg/mL,16 µg/mL,32 µg/mL,31.3 µg/mL,32 µg/mL,32 µg/mL,> 128 µg/mL,0.5,32 µg/mL,64 µg/mL,32 µg/mL,64 µg/mL
C[C@@H](O)[C@H]1C(=O)N2C(C(=O)O)=C(S[C@@H]3CN[C@H](C(=O)N(C)C)C3)[C@H](C)[C@H]12 [MEROPENEM],,,,,,,,,,0.063 µg/mL,,,,,
C=CCc1cc(-c2ccc(OCCC[N+](C)(C)CC(=O)NCCCC)c(CC=C)c2)c2oc(=S)n(Cc3cccc(OC)c3)c2c1.[Br-],4 µg/mL,4 µg/mL,16 µg/mL,4 µg/mL,4 µg/mL,8 µg/mL,> 160 µg/mL,8 µg/mL,8 µg/mL,> 128 µg/mL,> 20,4 µg/mL,8 µg/mL,4 µg/mL,8 µg/mL
C=CCc1cc(-c2ccc(OCCC[N+](C)(C)CC(=O)NCCCC)c(CC=C)c2)c2oc(=S)n(Cc3ccccc3Cl)c2c1.[Br-],4 µg/mL,8 µg/mL,8 µg/mL,16 µg/mL,4 µg/mL,16 µg/mL,965 µg/mL,8 µg/mL,4 µg/mL,> 128 µg/mL,241,4 µg/mL,4 µg/mL,4 µg/mL,16 µg/mL
C=CCc1cc(-c2ccc(OCCC[N+](C)(C)CC(=O)NCCCC)c(CC=C)c2)c2oc(=S)n(Cc3cc(F)c(F)c(F)c3)c2c1.[Br-],2 µg/mL,2 µg/mL,4 µg/mL,2 µg/mL,2 µg/mL,4 µg/mL,52.8 µg/mL,4 µg/mL,2 µg/mL,> 128 µg/mL,,2 µg/mL,2 µg/mL,2 µg/mL,16 µg/mL
C=CCc1cc(-c2ccc(OCCC[N+](C)(C)CC(=O)NCCCC)c(CC=C)c2)c2oc(=S)n(Cc3cccc(Br)c3)c2c1.[Br-],8 µg/mL,8 µg/mL,32 µg/mL,8 µg/mL,16 µg/mL,32 µg/mL,> 160 µg/mL,8 µg/mL,16 µg/mL,> 128 µg/mL,> 10,8 µg/mL,16 µg/mL,8 µg/mL,16 µg/mL
C=CCc1cc(-c2ccc(OCCC[N+](C)(C)CC(=O)NCCCC)c(CC=C)c2)c2oc(=S)n(Cc3ccc(Cl)c(Cl)c3)c2c1.[Br-],32 µg/mL,32 µg/mL,64 µg/mL,32 µg/mL,16 µg/mL,128 µg/mL,> 160 µg/mL,64 µg/mL,32 µg/mL,> 128 µg/mL,> 2.5,32 µg/mL,64 µg/mL,32 µg/mL,32 µg/mL
